In patent US12403144B2, “HECT E3 ligase inhibitors and uses thereof” (IFOM FONDAZIONE ISTITUTO FIRC DI ONCOLOGIA MOLECOLARE, priority 2019, dated 2025):

Biological target: T1, HECT domain of NEDD4 (Homo sapiens, UniProt P46934)
T1 construct: crystal structure of the HECT domain of NEDD4 in complex with compound 12; made in house
T1 sequence (P46934 519-900 isoform P46934-4 limits assumed): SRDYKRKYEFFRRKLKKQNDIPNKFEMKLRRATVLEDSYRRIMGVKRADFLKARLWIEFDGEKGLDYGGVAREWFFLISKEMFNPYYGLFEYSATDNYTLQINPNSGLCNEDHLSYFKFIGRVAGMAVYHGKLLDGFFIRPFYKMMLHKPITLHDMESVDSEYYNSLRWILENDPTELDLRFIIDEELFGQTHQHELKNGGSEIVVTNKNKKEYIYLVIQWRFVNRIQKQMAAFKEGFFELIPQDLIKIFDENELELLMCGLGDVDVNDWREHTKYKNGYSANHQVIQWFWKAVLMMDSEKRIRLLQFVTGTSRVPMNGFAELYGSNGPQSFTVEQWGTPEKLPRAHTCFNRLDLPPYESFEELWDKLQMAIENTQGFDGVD
Assay: X-Ray crystal structure of the HECT domain of NEDD4 in complex with compound
Type: binding
Settings: crystal soaking; thiol group of Cys627 attacks the α,β-unsaturated ester
Excerpt: FIG. 2: Structure of NEDD4 HECT in complex with compound 12. a. Compound 12 (dark grey sticks representation) binding to the HECT of NEDD4 (light grey), with a Fo-Fc map, calculated omitting the ligand, contoured at 2.5α level (represented as a grey mesh). b. Details of ligand binding: compound 12 and covalently or hydrogen-bonded NEDD4 residues are in ball-and-stick representation, hydrogen bond is shown as dotted line; spoked arcs represent protein residues making nonbonded contacts with the ligand.
FIG. 3: Structure of apo NEDD4 HECT superimposed with the one of the complex HECT-compound 12. Changes in the HECT structure upon compound 12 binding. Apo-HECT (pdb entry 2xbf, version 1.2, 13 Jul. 2011) depicted as dark grey ribbon; complex depicted as light grey ribbon. Side chains of residues Glu554 and Tyr634, and to a less extent those of Tyr604 and Tyr605, as well as main and side chain of residue Cys627 (covalently bound to the inhibitor) are rearranged upon inhibitor binding.
The inventors obtained by X-Ray the crystal structure of the HECT domain of NEDD4 in complex with compound 12. […]

CCOC(=O)/C=C/CNCCCCN1c2ccccc2CCc2ccc(Cl)cc21.O=C(O)/C=C\C(=O)O [Compound 12, Ethyl (E)-4-[4-(3-chloro-10,11-dihydro-5H-dibenzo[b,f]azepin-5-yl)butylamino]but-2-enoate maleate]
binding mode in crystal structure of NEDD4 HECT complex: covalent link to the protein
